Measurements: patent US10940139B2, “Compounds that interact with the Ras superfamily for the treatment of cancers, inflammatory diseases, rasopathies, and fibrotic disease” (Shy Therapeutics LLC, priority 2017, dated 2021)

How the values were obtained:
Assay in all cases: Ras GTP binding domain inhibition assay (labeled GTP)
KRas G12D mutant protein = KRas G12D mutant protein (Homo sapiens (Human), UniProt P01116, G12D); details: 20 μM compound, KRas G12D; for inhibition at 20 µM: read-out: % Inhibition at 20 μM of K-Ras mutant and wild-type protein, KRas G12D
KRas G12C mutant = KRas G12C mutant (Homo sapiens (Human), UniProt P01116, G12C); details: 20 μM compound, KRas G12C; for inhibition at 20 µM: read-out: % Inhibition at 20 μM of K-Ras mutant and wild-type protein, KRas G12C
How it was run: (§1)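 Fluorescence read-out of Cy3-/Cy5-GTP remaining bound to nickel-immobilized His-KRas after washes. Protein was coated overnight at 4° C, then exposed to compound for 3 h at room temperature before a 45 min labeled-GTP incubation.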

[1] = molecular target: KRas G12C/Q61H double mutant (Homo sapiens (Human), UniProt P01116, G12C/Q61H); details: 20 μM compound, KRas G12C/Q61H double mutant; for inhibition at 20 µM: read-out: % Inhibition at 20 μM of K-Ras mutant and wild-type protein, KRas G12C Q61H
How it was run: as §1

[2] = molecular target: KRas G12D/Q61H double mutant (Homo sapiens (Human), UniProt P01116, G12D/Q61H); details: 20 μM compound, KRas G12D/Q61H double mutant; for inhibition at 20 µM: read-out: % Inhibition at 20 μM of K-Ras mutant and wild-type protein, KRas G12D Q61H
How it was run: as §1

KRas Q61H mutant = KRas Q61H mutant (Homo sapiens (Human), UniProt P01116, Q61H); details: 20 μM compound, KRas Q61H; for inhibition at 20 µM: read-out: % Inhibition at 20 μM of K-Ras mutant and wild-type protein, KRas Q61H
How it was run: as §1

KRas wild type = KRas wild type (Homo sapiens (Human), UniProt P01116); details: 20 μM compound, KRas wild type; for inhibition at 20 µM: read-out: % Inhibition at 20 μM of K-Ras mutant and wild-type protein, KRas wild type
How it was run: as §1

KRas G12C mutant, sequence (P01116-2 other isoform, or with tags, fused parts or gaps G12C): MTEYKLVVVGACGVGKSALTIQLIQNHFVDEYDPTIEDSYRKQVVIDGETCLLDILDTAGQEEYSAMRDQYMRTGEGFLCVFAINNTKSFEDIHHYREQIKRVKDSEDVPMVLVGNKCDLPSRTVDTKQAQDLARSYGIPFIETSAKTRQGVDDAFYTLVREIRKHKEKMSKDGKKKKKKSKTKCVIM
KRas G12D/Q61H double mutant, sequence (P01116-2 other isoform, or with tags, fused parts or gaps G12D/Q61H): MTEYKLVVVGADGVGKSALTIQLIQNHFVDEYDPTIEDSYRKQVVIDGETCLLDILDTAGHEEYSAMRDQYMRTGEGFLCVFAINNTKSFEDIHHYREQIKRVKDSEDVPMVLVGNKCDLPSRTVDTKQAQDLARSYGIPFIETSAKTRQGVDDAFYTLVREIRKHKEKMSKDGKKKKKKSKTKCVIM
KRas G12C/Q61H double mutant, sequence (P01116-2 other isoform, or with tags, fused parts or gaps G12C/Q61H): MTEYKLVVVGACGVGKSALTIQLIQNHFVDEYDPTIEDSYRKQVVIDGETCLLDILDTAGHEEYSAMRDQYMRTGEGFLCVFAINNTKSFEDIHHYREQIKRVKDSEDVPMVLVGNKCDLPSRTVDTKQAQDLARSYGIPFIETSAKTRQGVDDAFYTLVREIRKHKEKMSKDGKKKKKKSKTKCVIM
KRas wild type, sequence (P01116-2 other isoform, or with tags, fused parts or gaps): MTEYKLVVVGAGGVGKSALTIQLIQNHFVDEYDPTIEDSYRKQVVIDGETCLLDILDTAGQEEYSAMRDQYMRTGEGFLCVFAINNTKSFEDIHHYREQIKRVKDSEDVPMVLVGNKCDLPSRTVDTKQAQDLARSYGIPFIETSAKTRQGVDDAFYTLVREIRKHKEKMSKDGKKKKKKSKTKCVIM
KRas Q61H mutant, sequence (P01116-2 other isoform, or with tags, fused parts or gaps Q61H): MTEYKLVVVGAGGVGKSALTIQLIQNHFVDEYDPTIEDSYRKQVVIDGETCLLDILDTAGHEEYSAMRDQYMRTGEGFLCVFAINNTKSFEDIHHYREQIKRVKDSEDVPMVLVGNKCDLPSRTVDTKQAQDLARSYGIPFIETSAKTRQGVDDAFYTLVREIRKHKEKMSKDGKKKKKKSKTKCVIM
KRas G12D mutant protein, sequence (P01116-2 other isoform, or with tags, fused parts or gaps G12D): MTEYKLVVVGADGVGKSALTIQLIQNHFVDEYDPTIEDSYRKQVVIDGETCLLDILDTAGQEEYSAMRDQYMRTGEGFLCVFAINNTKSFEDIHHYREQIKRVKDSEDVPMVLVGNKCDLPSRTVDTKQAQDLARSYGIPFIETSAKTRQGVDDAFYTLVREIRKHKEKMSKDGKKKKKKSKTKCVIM

| SMILES | inhibition at 20 µM (KRas G12D mutant protein) [%] | inhibition at 20 µM (KRas G12C mutant) [%] | inhibition at 20 µM [1] [%] | inhibition at 20 µM [2] [%] | inhibition at 20 µM (KRas Q61H mutant) [%] | inhibition at 20 µM (KRas wild type) [%] | % Inhibition at 20 μM of K-Ras mutant and wild-type protein, KRas G12D (KRas G12D mutant protein) | % Inhibition at 20 μM of K-Ras mutant and wild-type protein, KRas G12C (KRas G12C mutant) | % Inhibition at 20 μM of K-Ras mutant and wild-type protein, KRas G12C Q61H [1] | % Inhibition at 20 μM of K-Ras mutant and wild-type protein, KRas G12D Q61H [2] | % Inhibition at 20 μM of K-Ras mutant and wild-type protein, KRas Q61H (KRas Q61H mutant) | % Inhibition at 20 μM of K-Ras mutant and wild-type protein, KRas wild type (KRas wild type) |
| --- | --- | --- | --- | --- | --- | --- | --- | --- | --- | --- | --- | --- |
| Cc1c(C(=O)O)sc2c(O)nc(-c3ccccn3)nc12 [drawing 3475] | 25 to 50 | 1 to 25 | 51 to 75 | 51 to 75 | 51 to 75 | 1 to 25 |  |  |  |  |  |  |
| Oc1nc(-c2ccccn2)nc2c(C3CCC3)csc12 [drawing 3478] | 51 to 75 | 25 to 50 | 51 to 75 | 51 to 75 | 51 to 75 | 25 to 50 |  |  |  |  |  |  |
| COc1nc(-c2ccccn2)nc2c(C3CCC3)csc12 [drawing 3480] | 1 to 25 | 25 to 50 | 51 to 75 | 51 to 75 | 76 to 100 | 1 to 25 |  |  |  |  |  |  |
| CC(C)Oc1cnc(-c2ccccn2)nc1O [drawing 3481] | 51 to 75 | 51 to 75 | 76 to 100 | 51 to 75 | 51 to 75 | 25 to 50 |  |  |  |  |  |  |
| CC(C)c1csc2c(O)nc(-c3ccccn3)nc12 [drawing 3487] | 51 to 75 | 51 to 75 | 51 to 75 | 51 to 75 | 51 to 75 | 51 to 75 |  |  |  |  |  |  |
| CN(C)CCOc1cccc(-c2csc3c(O)nc(-c4ccccn4)nc23)c1 [drawing 3492] | 76 to 100 | 51 to 75 | 76 to 100 | 76 to 100 | 76 to 100 | 51 to 75 |  |  |  |  |  |  |
| COc1ccc(CCC(=O)Nc2nc(-c3ccccn3)nc3sccc23)cn1 [drawing 3493] | 51 to 75 | 25 to 50 | 51 to 75 | 51 to 75 | 76 to 100 | 25 to 50 |  |  |  |  |  |  |
| CC(C)Cc1csc2c(O)nc(-c3ccccn3)nc12 [drawing 3494] | 51 to 75 | 25 to 50 | 51 to 75 | 51 to 75 | 76 to 100 | 25 to 50 |  |  |  |  |  |  |
| Oc1nc(-c2ccccn2)nc2c(C3CCCC3)csc12 [drawing 3495] | 51 to 75 | 25 to 50 | 51 to 75 | 51 to 75 | 51 to 75 | 25 to 50 |  |  |  |  |  |  |
| COc1cnc(-c2cn(C)cn2)nc1O [drawing 3496] | 51 to 75 | 51 to 75 | 51 to 75 | 51 to 75 | 76 to 100 | 25 to 50 |  |  |  |  |  |  |
| Cc1sc2c(O)nc(-c3ccccn3)nc2c1-c1ccncc1 [drawing 3497] | 51 to 75 | 25 to 50 | 25 to 50 | 51 to 75 | 51 to 75 | 1 to 25 |  |  |  |  |  |  |
| Oc1cccc(-c2csc3c(O)nc(-c4ccccn4)nc23)n1 [drawing 3498] | 25 to 50 | 25 to 50 | 51 to 75 | 51 to 75 | 76 to 100 | 51 to 75 |  |  |  |  |  |  |
| Oc1nc(-c2ccccn2)nc2c(C3CC3)csc12 [drawing 3518] | 51 to 75 | 25 to 50 | 1 to 25 | 25 to 50 | 25 to 50 | 25 to 50 |  |  |  |  |  |  |

Results, then the compound that gave them:

| inhibition at 20 µM (KRas G12D mutant protein) [%] | inhibition at 20 µM (KRas G12C mutant) [%] | inhibition at 20 µM [1] [%] | inhibition at 20 µM [2] [%] | inhibition at 20 µM (KRas Q61H mutant) [%] | inhibition at 20 µM (KRas wild type) [%] | % Inhibition at 20 μM of K-Ras mutant and wild-type protein, KRas G12D (KRas G12D mutant protein) | % Inhibition at 20 μM of K-Ras mutant and wild-type protein, KRas G12C (KRas G12C mutant) | % Inhibition at 20 μM of K-Ras mutant and wild-type protein, KRas G12C Q61H [1] | % Inhibition at 20 μM of K-Ras mutant and wild-type protein, KRas G12D Q61H [2] | % Inhibition at 20 μM of K-Ras mutant and wild-type protein, KRas Q61H (KRas Q61H mutant) | % Inhibition at 20 μM of K-Ras mutant and wild-type protein, KRas wild type (KRas wild type) | SMILES |
| --- | --- | --- | --- | --- | --- | --- | --- | --- | --- | --- | --- | --- |
| 76 to 100 | 51 to 75 | 51 to 75 | 51 to 75 | 76 to 100 | 25 to 50 |  |  |  |  |  |  | Oc1nc(-c2ccccn2)nc2c(-c3cc(CN4CCCC4)ccc3F)csc12 [drawing 3502] |
| 51 to 75 | 25 to 50 | 51 to 75 | 51 to 75 | 51 to 75 | 25 to 50 |  |  |  |  |  |  | Cc1nn(C(C)C)cc1-c1csc2c(O)nc(-c3ccccn3)nc12 [drawing 3506] |
| 51 to 75 | 51 to 75 | 51 to 75 | 51 to 75 | 51 to 75 | 25 to 50 |  |  |  |  |  |  | Cc1sc2c(O)nc(-c3ccccn3)nc2c1C(=O)N1CCN(c2ccccc2)CC1C (stereo not drawn) [drawing 3509] |
| 25 to 50 | 1 to 25 | 51 to 75 | 51 to 75 | 51 to 75 | 1 to 25 |  |  |  |  |  |  | Cc1sc2c(O)nc(-c3ccccn3)nc2c1C(=O)N1CCN(Cc2cccc(O)c2)CC1 [drawing 3510] |
|  |  |  |  |  |  | C (51-75% inhibition) | C (51-75% inhibition) | C (51-75% inhibition) | C (51-75% inhibition) | D (76-100% inhibition) | B (25-50% inhibition) | COc1cnc(-c2cn(C)cn2)nc1O [drawing 3512] |
| 76 to 100 | 51 to 75 | 76 to 100 | 76 to 100 | 76 to 100 | 51 to 75 |  |  |  |  |  |  | COc1cnc(-c2nccn2C)nc1O [drawing 3513] |
| 51 to 75 | 25 to 50 | 51 to 75 | 51 to 75 | 76 to 100 | 51 to 75 |  |  |  |  |  |  | Nc1cccc(-c2csc3c(O)nc(-c4ccccn4)nc23)n1 [drawing 3514] |
| 51 to 75 | 1 to 25 | 51 to 75 | 51 to 75 | 76 to 100 | 1 to 25 |  |  |  |  |  |  | Cc1sc2c(O)nc(-c3ccccn3)nc2c1-c1ccccc1Cl [drawing 3515] |
| 51 to 75 | 51 to 75 | 51 to 75 | 51 to 75 | 51 to 75 | 51 to 75 |  |  |  |  |  |  | COc1cnc(-c2cnc[nH]2)nc1O [drawing 3516] |
| 51 to 75 | 51 to 75 | 51 to 75 | 51 to 75 | 51 to 75 | 25 to 50 |  |  |  |  |  |  | Oc1nc(-c2ccccn2)nc2c(CC3CCNC3)csc12 (stereo not drawn) [drawing 3526] |
| 25 to 50 | 51 to 75 | 25 to 50 | 25 to 50 | 51 to 75 | 25 to 50 |  |  |  |  |  |  | O=c1[nH]c(-c2ccccn2)nc2c([C@@H]3O[C@H](CO)[C@@H](O)[C@H]3O)csc12 [drawing 3527] |
| 51 to 75 | 51 to 75 | 51 to 75 | 76 to 100 | 76 to 100 | 51 to 75 |  |  |  |  |  |  | COCCNc1nc(-c2cn(C)cn2)nc2sc(-c3ccncc3)c(-c3ccccc3)c12 [drawing 3530] |
| 25 to 50 | 25 to 50 | 1 to 25 | 25 to 50 | 25 to 50 | 1 to 25 |  |  |  |  |  |  | COc1nc(-c2cn(C)cn2)nc2sc(-c3ccncc3)c(-c3ccccc3)c12 [drawing 3531] |
